Assay [1] can be described thus: Comparison of cooling attributes of (−)-menthol and racemic menthol in a toothpaste (CREST Cavity formulation). The format is in vivo. From the text:
The following data helps support the use of racemic menthol to reduce costs of mint flavor compositions herein described. From internal unpublished research, Table B compares replacing (−)-menthol with a racemic menthol in a 1:1 in a toothpaste formulation. Such a direct replacement is not preferred given the reduced cooling profile and olfactory differences; however, a portion of L-menthol is preferably replaced by racemic-menthol to gain cost efficiency while minimizing impact to the overall mint flavor profiles.
Table B is a comparison of attributes between (—)-menthol and racemic menthol in a toothpaste context (using CREST Cavity formulation).

A short description of assay [2]: Expert sensory testing of racemic menthol vs (−)-menthol in toothpaste (CREST Cavity) with standard spearmint flavor. The format is in vivo. As to the method:
In separate, unpublished internal experiments, perceptual experiences of racemic menthol are quantified via expert sensory testing. The use of a standard spearmint flavor (minimizing extra menthol contribution) compared racemic menthol to (−)-menthol in a toothpaste formulation (CREST Cavity). There are several sensory observations taken from these experiments. […] These aromatic notes appear during brushing and disappear after 5-10 minutes post expectoration and are more pronounced as concentrations increase.

As for `CC1CCC(C(C)C)C(O)C1` (racemic) [Racemic Menthol, racemic menthol], in assay [1], the “Potency compared to L-Menthol” value is listed as ~0.65-0.7x and the “Time Point at Maximum Cooling” value was around 1 min. Moreover, the “Maximum Cooling (0-60 scale)” value in assay [1] (60 = greatest amount of cooling, 0 = least) is reported as 35. In addition, the “Maximum Longevity” value in assay [1] (cooling) was “Up to 20 minutes”. The “less potent than (−)-menthol for cooling” value in assay [2] was 25-30%.
